This is an account of results in patent US20250340590A1, “PEPTIDE HAVING ANTI-INFLAMMATORY ACTIVITY AND USE THEREOF” (CAREGEN CO., LTD., priority 2021, published 2025).

Assay [1] has as its system IL-1β. As to the kind of experiment: IL-1β mRNA level by RT-PCR in TNFα-induced mouse splenocytes. Type of assay: cell-based. As to conditions: TNFα 20 nM, peptide at 5 μM and 50 μM, 3 hours, compared to group not treated with the peptide. Here is the method: In order to further confirm the anti-inflammatory effect of the peptide treatment of the present invention in addition to the results of Experimental Example <3-1>, inflammation was induced by treating mouse splenocytes with TNFα, and the expression levels of inflammatory cytokines TNFα and IL-1β, and Cox2, which is an inflammation-inducing marker, genes were confirmed. In order to induce inflammation, the cells were treated with cytokine TNFα, and since TNFα corresponds to a signaling protein associated with inflammation, IL-1β corresponds to a cytokine that promotes inflammation, and Cox2 is a protein associated with inflammation, the degree of inflammation can be confirmed by measuring the expression levels of TNFα, Cox2, and IL-1β genes.
Mouse splenocytes were dispensed into a 24-well plate at a concentration of 1× 10^7 cells/well and cultured until the next day. The medium was replaced with serum-free medium, and after 3 hours, the cells were treated with TNFα and the peptide of the present invention and then cultured for another 3 hours. In order to induce inflammation, the cells were treated with TNFα at 20 nM, and the peptide at 5 μM and 50 μM, respectively. […] After quantifying the amount of isolated RNA, cDNA was synthesized using a cDNA synthesis kit (Intron, Korea), PCR was performed using a PCR premix (Intron, Korea) and primers for TNFα, Cox2, and IL-1B. […]

In assay [2] the test system is IL-1β. In words: IL-1β secretion by ELISA in mouse splenocytes induced with LPS, TGFβ and IL-23. The class given is cell-based. As to conditions: LPS 2 μg/mL, TGFβ 20 ng/ml, IL-23 20 ng/mL, 24 hours. The text has this:
(§1) Inflammation was induced by treating mouse splenocytes with LPS, which is an inflammation-inducing antigen, and TGFβ and IL-23, which are inflammatory cytokines, and the secretion amounts of the inflammatory cytokines IL-17, IL-1β, and IFNγ were confirmed. The descriptions of IL-17, IL-1B, and IFNγ are the same as above.
(§2) Mouse splenocytes were dispensed into a 24-well plate at a concentration of 1×10^7 cells/well and cultured until the next day. The medium was replaced with serum-free medium, and after 4 hours, the cells were treated with LPS, TGFβ, and IL-23 and the peptide of the present invention and then cultured again for another 24 hours. In order to induce inflammation, the cells were treated with LPS at 2 μg/mL, TGFβ at 20 ng/ml, IL-23 at 20 ng/mL, and the peptide at 5 μM and 50 μM, respectively. The mouse splenocytes in the group in which inflammation was not induced due to untreatment with LPS, TGFβ, and IL-23 (NON); the negative control group in which the cells were treated with LPS, TGFβ, and IL-23 but not treated with the peptide (NC); and the group in which the cells were treated with LPS, TGFβ, and IL-23 along with the peptide of the present invention at the same concentration as above, respectively, were reacted as described above and the cell cultures were recovered. […]
(In general: In an ELISA, binding on a coated surface is turned into a signal by an enzyme label.)

The next assay has as its system IL-17. In words: IL-17 secretion by ELISA in mouse splenocytes induced with LPS, TGFβ and IL-23. The class given is cell-based. Particulars: LPS 2 μg/mL, TGFβ 20 ng/ml, IL-23 20 ng/mL, 24 hours.
Source text: as §1, §2

In a further assay the test system is iNos. As to the kind of experiment: iNos protein level by Western blot in HaCaT cells induced with LPS, TGFβ and IL-23. Type of assay: cell-based, human. Particulars: IL-23 and LPS, peptide at 5 μM and 50 μM, 24 hours, compared to group not treated with the peptide. Here is the method: In order to further confirm the anti-inflammatory effect of the peptide treatment of the present invention in addition to the results of Experimental Example 1, HaCaT cells were treated with Th17 (type 17), which is an inflammation-inducing substance, and the expression levels of inflammation-inducing markers iNos and Cox2 were confirmed. As the inflammation-inducing substances, the cells were treated with LPS, TGFβ, and IL-23, and since iNos is an enzyme involved in the production of nitric oxide (NO), which is an inflammation-related protein induced by LPS, etc., it is possible to confirm whether inflammation is inhibited by measuring the expression levels of iNos and Cox2.
HaCaT cells were dispensed into a 24-well plate at a concentration of 3× 10^5 cells/well and cultured until the next day. The medium was replaced with serum-free medium, and after 4 hours, the cells were treated with TGFβ, IL-23, and LPS, which are Th17 type inflammation-inducing cytokines, and then with the peptide of the present invention and cultured again for another 24 hours. […] In order to perform Western blotting, the amounts of iNos and Cox2 proteins were measured using an anti-iNos antibody and an anti-Cox2 antibody (Cell Signaling Technology, USA). […]
On the technique in general: Immunoblotting shows a protein as a band on a membrane.

Consider TWNS [peptide of the present invention], for which the “mRNA expression level of IL-1β” value in the assay on IL-1β [1] is given as “decreased”. Also, the “secretion amount of IL-1β” value in the assay on IL-1β [2] (peptide at 5 μM) and in the assay on IL-1β [2] (peptide at 50 μM) was “decreased” throughout. Moreover, the “secretion amount of IL-17” value in the assay on IL-17 (peptide at 5 μM) is listed as “slightly increased”; in the assay on IL-17 (peptide at 50 μM), “decreased”. Besides, in the assay on iNos, the “expression level of iNos protein” value is recorded as “decreased”.
